Laboratory results from patent US20080103127A1, “METHODS FOR TREATING DISRUPTIVE BEHAVIOR DISORDERS” (priority 2006, published 2008).

Tests used:
submissive rats [1] = assay: Reduction of Submissive Behavior Model (RSBM) of depression, dominant-submissive rat food competition test; type: in vivo, Sprague-Dawley rats
Text: In this study, the effects of COMPOUND #7 on dominant or submissive behavior in pairs of rats competing for food are examined. It has been shown that anti-manic drugs, including anticonvulsants, decrease dominance and antidepressant drugs reduce submissiveness. This model uses dominant behavior as a model of mania and submissive behavior as a model of depression. The dominance and submissiveness is defined in a competition test and measured as the relative success of two food-restricted rats to gain access to a feeder. Rats are randomly paired and placed in an apparatus allowing them to compete for a food reward. The dominant-submissive relationship develops over a 2-week period. The submissive or dominant animals in pairs selected after 2 weeks of training were treated orally […] (b.i.d.) with COMPOUND #7 at 3 or 30 mg/kg for 5 weeks. The partner of the drug-treated animal was treated with vehicle.
The objective of this study was to determine if COMPOUND #7 is active in the Reduction of Submissive Behavior Model (RSBM) of depression and the Reduction of Dominant Behavior Model (RDBM) of mania. Measurements were made at two doses (3 and 30 mg/kg) after oral twice a day (b.i.d.) administration. The effect of the drug in the RSBM was compared to the effect of fluoxetine (10 mg/kg) and vehicle (0.5% methylcellulose). The effect of the drug in the RDBM was compared with the effect of lithium (100 mg/kg) and vehicle (0.5% methylcellulose). The endpoints measured were the development of a significant reduction of submissive or dominant behavior and its time of onset.
The DSR developed by two rats competing for food uses the apparatus in FIG. 1. The methodology and equipment are described in several publications. (See, Malatynska E, Goldenberg R, Shuck L, Haque A, Zamecki P, Crites G, Schindler N, Knapp R J. Reduction of submissive behavior in rats: a test for antidepressant drug activity. Pharmacology 2002; 64:8; Malatynska E, Rapp R, Crites G. Dominant behavior measured in a competition test as a model of mania. In: International Behavioral Neuroscience Society Meeting, ed. IBNSCapri, Italy, 2002, p 26.; Bonnet U. Moclobemide: therapeutic use and clinical studies. CNS Drug Rev 2003; 9:97; Danysz W, Plaznik A, Kostowski W, Malatynska E, Jarbe T U, Hiltunen A J, Archer T. Comparison of desipramine, amitriptyline, zimeldine and alaproclate in six animal models used to investigate antidepressant drugs. Pharmacol Toxicol 1988; 62:42; Knapp R J, Goldenberg R, Shuck C, Cecil A, Watkins J, Miller C, Crites G, Malatynska E. Antidepressant activity of memory-enhancing drugs in the reduction of submissive behavior model. Eur J Pharmacol 2002; 440:27; Kostowski W, Malatynska E, Plaznik A, Dyr W, Danysz W. Comparative studies on antidepressant action of alprazolam in different animal models. Pol J Pharmacol Pharm 1986; 38, 471; Malatynska E, De Leon I, Allen D, Yamamura Hi. Effects of amitriptyline on GABA-stimulated ^36Cl^− uptake in relation to a behavioral model of depression. Brain Res Bull 1995; 37:53; Malatynska E, Kostowski W. The effect of antidepressant drugs on dominance behavior in rats competing for food. Pol J Pharmacol Pharm 1984; 36:531; Malatynska E, Kostowski W. Desipramine antagonizes clonidine-induced suppression of dominance in rats: possible involvement of amygdaloid nuclei. Pol J Pharmacol Pharm 1988; 40:357).
In the experiments described in this report Sprague-Dawley rats weighing 160 to 180 g were used. Testing for the development of a DSR between paired rats begins with the random assignment of rats into pairs. Rats from pairs are housed separately between test sessions with other animals in groups of four. The animals are food-deprived overnight with free access to water.
The test involves placing each member of a pair in opposite chambers of the testing apparatus. These chambers are connected through a narrow tunnel with a small container of sweetened milk at the center. […]

dominant rats = conditions: administered to dominant rats; cited from earlier work
submissive rats [2] = conditions: cited from earlier work; for submissive behavior: treatment of the submissive subject for 3 weeks

Which “effect of treatment of submissive rats (psychostimulant)” value (submissive rats [1]; unpublished observation) does the source give for `CC(N)Cc1ccccc1` (stereo not shown) [amphetamine, reference compound] here?
The value was “ineffective”.

For `NC(=O)N1c2ccccc2C=Cc2ccccc21` [carbamazepine], which “competitive behavior of dominant rats” value (dominant rats) is on record?
The value was “significantly reduced competitive behavior”.

Which “competitive behavior of dominant rats” value (dominant rats) does the source give for `Clc1cccc(Cl)c1N=C1NCCN1` [clonidine] here?
The value was “significantly reduced competitive behavior”.

What does the source list for `CNCCCN1c2ccccc2CCc2ccccc21` [desipramine]?
effect on submissive behavior after cessation of treatment (submissive rats [2]; after cessation of treatment): attenuated; submissive behavior (submissive rats [2]): reduced submissive behavior

For `CN1C(=O)CN=C(c2ccccc2)c2cc(Cl)ccc21` [diazepam], which “effect of treatment of submissive rats (anxiolytic)” value (submissive rats [2]; Pharmacology 2002, 64:8) is on record?
The value was “ineffective”.

Which submissive behavior (submissive rats [2]) does the source give for `CNCCC(Oc1ccc(C(F)(F)F)cc1)c1ccccc1` (stereo not shown) [fluoxetine, reference compound] here?
The submissive behavior was “reduced submissive behavior”.

And the “onset of significant effect on submissive rats (time of treatment)” value (submissive rats [1]; 10 mg/kg i.p. once a day, previous experimental set)?
The value was 3 weeks.

With `CN(C)CCCN1c2ccccc2CCc2ccccc21` [imipramine] as the compound, how does the submissive behavior (submissive rats [2]) read?
Its submissive behavior is “reduced submissive behavior”.

For `CCCC(CCC)C(=O)[O-].[Na+]` [sodium valproate], which “competitive behavior of dominant rats” value (dominant rats) is on record?
The value was “significantly reduced competitive behavior”.
